pEC50: −log10 of the molar value.

The target in this assay is T1, glucokinase (GK) enzyme (Homo sapiens, UniProt P35557).
T1 sequence (P35557 1-465): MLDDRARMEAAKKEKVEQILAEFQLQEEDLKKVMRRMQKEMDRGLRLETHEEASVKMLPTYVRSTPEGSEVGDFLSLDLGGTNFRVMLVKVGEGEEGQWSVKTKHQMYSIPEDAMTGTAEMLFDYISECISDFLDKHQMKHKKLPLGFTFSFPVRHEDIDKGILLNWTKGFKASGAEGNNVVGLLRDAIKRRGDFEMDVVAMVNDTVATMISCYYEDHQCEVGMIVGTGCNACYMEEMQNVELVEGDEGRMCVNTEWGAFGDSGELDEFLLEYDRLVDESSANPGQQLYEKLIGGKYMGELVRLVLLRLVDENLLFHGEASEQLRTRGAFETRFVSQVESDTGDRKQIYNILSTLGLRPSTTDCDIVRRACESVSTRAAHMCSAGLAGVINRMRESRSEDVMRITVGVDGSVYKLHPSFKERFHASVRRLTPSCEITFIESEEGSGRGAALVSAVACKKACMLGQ
Put plainly: In-vitro glucokinase (GK) enzyme activation assay (coupled with glucose-6-phosphate dehydrogenase, absorbance at 340). It counts as biochemical. To be noted: glucose 2.5 mM, ATP 1 mM; for activity at 0.1 µM / activity at 1 µM / activity at 5 µM / activity at 10 µM: read-out: % of GK activity wrt DMSO; for pEC50: GK activation. As for the experimental part:
The compound of the invention was incubated with glucokinase (GK) enzyme (0.2 units) for 10 minutes in assay buffer at 26° C. After incubation, addition of glucose-6-phosphate dehydrogenase (2.5 units), ATP (1 mM) and glucose (2.5 mM). Absorbance is measured at 340 nm for 15 minutes with 10 second interval using UV transparent plate in kinetic mode on Spectramax-190 at 30° C.

With `C=CCCOc1cc(Oc2ccc(-c3nnc(C)o3)cc2)cc(C(=O)Nc2nc(C)cs2)c1` [Example 2.12, 3-(But-3-en-1-yloxy)-5-(4-(5-methyl-1,3,4-oxadiazol-2-yl)phenoxy)-N-(4-methylthiazol-2-yl)benzamide], the activity at 0.1 µM (compound 0.1 uM) worked out at 140%. For the same compound, the activity at 1 µM (compound 1 uM) came out at 176%. Also, the activity at 5 µM (compound 5 uM) amounted to 302%. The activity at 10 µM (compound 10 uM) was found to be 144%.
As for `COCC(C)Oc1cc(Oc2ccc(-c3nnc(C)o3)cc2)cc(C(=O)Nc2nc(C)cs2)c1` (centres unmarked) [Example 2.10, 3-((1-Methoxypropan-2-yl)oxy)-5-(4-(5-methyl-1,3,4-oxadiazol-2-yl)phenoxy)-N-(4-methylthiazol-2-yl)benzamide], where the note is “compound 0.1 uM”, the activity at 0.1 µM is 310%. The activity at 1 µM (compound 1 uM) came out at 370%. Further, the activity at 5 µM (compound 5 uM) is 368%. Also, where the note is “compound 10 uM”, the activity at 10 µM is 356%.
Regarding `COC[C@H](C)Oc1cc(Oc2ccc(-c3nnc(C)o3)cc2)cc(C(=O)Nc2ncc(C)s2)c1` [Example 2.11, (S)-3-((1-Methoxypropan-2-yl)oxy)-5-(4-(5-methyl-1,3,4-oxadiazol-2-yl)phenoxy)-N-(5-methylthiazol-2-yl)benzamide], the activity at 0.1 µM (compound 0.1 uM) turned out to be 235%. Besides, the activity at 1 µM (compound 1 uM) was found to be 258%. Moreover, the activity at 5 µM (compound 5 uM) came to 191%. Also, the activity at 10 µM (compound 10 uM) worked out at 243%.
On to `COCC(C)Oc1cc(Oc2cccc(-c3nnc(C)o3)c2)cc(C(=O)Nc2nccs2)c1` (centres unmarked) [Example 2.21, 3-((1-Methoxypropan-2-yl)oxy)-5-(3-(5-methyl-1,3,4-oxadiazol-2-yl)phenoxy)-N-(thiazole-2-yl)benzamide], for which the activity at 0.1 µM (compound 0.1 uM) was found to be 179%. Also, the activity at 1 µM (compound 1 uM) turned out to be 287%. For the setting “compound 5 uM”, the activity at 5 µM was determined as 318%. The activity at 10 µM (compound 10 uM) is 293%.
As to `C=CCCOc1cc(Oc2ccc(-c3nnc(C)o3)cc2)cc(C(=O)Nc2ncc(C)s2)c1` [Example 2.13, 3-(But-3-en-1-yloxy)-5-(4-(5-methyl-1,3,4-oxadiazol-2-yl)phenoxy)-N-(5-methylthiazol-2-yl)benzamide], the activity at 0.1 µM (compound 0.1 uM) was 112%. Moreover, the activity at 1 µM (compound 1 uM) stood at 180%. The activity at 5 µM (compound 5 uM) was determined as 233%. Also, the activity at 10 µM (compound 10 uM) was determined as 215%.
For the compound `COCC(C)Oc1cc(Oc2ccc(-c3nnc(C4CC4)o3)cc2)cc(C(=O)Nc2nccs2)c1` (centres unmarked) [Example 2.28, 3-(4-(5-Cyclopropyl-1,3,4-oxadiazol-2-yl)phenoxy)-5-((1-methoxypropan-2-yl)oxy)-N-(thiazol-2-yl)benzamide], the activity at 0.1 µM (compound 0.1 uM) came to 223%. For the same compound, the activity at 1 µM (compound 1 uM) came to 450%. Further, the activity at 5 µM (compound 5 uM) stood at 493%. Also, the activity at 10 µM (compound 10 uM) was determined as 488%.
As to `Cc1nnc(-c2ccc(Oc3cc(OCC4CCOCC4)cc(C(=O)Nc4nccs4)c3)cc2)o1` [Example 2.6], the “% of GK activity wrt DMSO” value by setting is: (compound 0.1 uM) 128.2%; (compound 1 uM) 196.4%; (compound 5 uM) 251.8%; (compound 10 uM) 249.3%.
For `COCC(C)Oc1cc(Oc2ccc(-c3nnc(C4CCCC4)o3)cc2)cc(C(=O)Nc2nccs2)c1` (centres unmarked) [Example 2.31] the same measures were 252.3%, 433.6%, 518.5% and 470.8%.
Turning to `CCOC(=O)c1cnc(NC(=O)c2cc(Oc3ccc(-c4nnc(C)o4)cc3)cc(OC(C)COC)c2)s1` (centres unmarked) [Example 2.16, Ethyl 2-{3-[(1-methoxypropan-2-yl)oxy]-5-[4-(5-methyl-1,3,4-oxadiazol-2-yl)phenoxy]benzamido}thiazole-5-carboxylate], where the note is “compound 0.1 uM”, the activity at 0.1 µM was determined as 101%. The activity at 1 µM (compound 1 uM) came to 144%. Further, the activity at 5 µM (compound 5 uM) came out at 201%. Besides, the activity at 10 µM (compound 10 uM) came to 205%.
With `COC(C)CCOc1cc(Oc2ccc(-c3nnc(C)o3)cc2)cc(C(=O)Nc2nccs2)c1` (centres unmarked) [Example 1.7, 3-(3-Methoxybutoxy)-5-(4-(5-methyl-1,3,4-oxadiazol-2-yl)phenoxy)-N-(thiazol-2-yl)benzamide], the activity at 0.1 µM (compound 0.1 uM) turned out to be 164%. Also, the activity at 1 µM (compound 1 uM) was determined as 228%. Also, the activity at 5 µM (compound 5 uM) worked out at 245%. For the same compound, where the note is “compound 10 uM”, the activity at 10 µM stood at 236%.
For `Cc1nnc(-c2ccc(Oc3cc(OCC4CCC5(CC5)C4)cc(C(=O)Nc4nccs4)c3)cc2)o1` (centres unmarked) [Example 1.6, 3-(4-(5-Methyl-1,3,4-oxadiazol-2-yl)phenoxy)-5-(spiro[2.4]heptan-5-ylmethoxy)-N-(thiazol-2-yl)benzamide] the same measures were 134%, 178%, 183% and 165%.
Take `Cc1nnc(-c2ccc(Oc3cc(OCC4CC4)cc(C(=O)Nc4nccs4)c3)cc2)o1` [Example 1.5, 3-(Cyclopropylmethoxy)-5-(4-(5-methyl-1,3,4-oxadiazol-2-yl)phenoxy)-N-(thiazol-2-yl)benzamide]: the negative logarithm of the EC50 (pEC50) (as a rule, the EC50 on a negative log10 scale, so that one unit is a factor of ten) was 7.06. Moreover, the activity at 0.1 µM (compound 0.1 uM) worked out at 234%. In addition, under “compound 1 uM”, the activity at 1 µM came to 292%. Moreover, the activity at 5 µM (compound 5 uM) turned out to be 305%. Also, the activity at 10 µM (compound 10 uM) came out at 293%.
Regarding `Cc1nnc(-c2ccc(Oc3cc(OC(C)C4CC4)cc(C(=O)Nc4nccs4)c3)cc2)o1` (centres unmarked) [Example 1.4, 3-(1-Cyclopropylethoxy)-5-(4-(5-methyl-1,3,4-oxadiazol-2-yl)phenoxy)-N-(thiazol-2-yl)benzamide], the pEC50 was 7.64. Also, the activity at 0.1 µM (compound 0.1 uM) came out at 282%. In addition, the activity at 1 µM (compound 1 uM) came to 313%. Also, the activity at 5 µM (compound 5 uM) was 314%. Moreover, under “compound 10 uM”, the activity at 10 µM came to 311%.
For `Cc1nnc(-c2ccc(Oc3cc(OCC(C)C)cc(C(=O)Nc4nccs4)c3)cc2)o1` [Example 2.5, 3-Isobutoxy-5-(4-(5-methyl-1,3,4-oxadiazol-2-yl)phenoxy)-N-(thiazol-2-yl)benzamide] the same measures were 6.99, 195%, 256%, 282% and 278%.
Consider `COCC(C)Oc1cc(Oc2ccc(-c3nnc(C)o3)cc2)cc(C(=O)Nc2ncc(C)s2)c1` (centres unmarked) [Example 2.9, 3-((1-Methoxypropan-2-yl)oxy)-5-(4-(5-methyl-1,3,4-oxadiazol-2-yl)phenoxy)-N-(5-methylthiazol-2-yl)benzamide], for which the activity at 0.1 µM (compound 0.1 uM) came out at 251%. The activity at 1 µM (compound 1 uM) is 278%. In addition, the activity at 5 µM (compound 5 uM) is 283%. Besides, the activity at 10 µM (compound 10 uM) stood at 279%.
For `CCOC(=O)c1csc(NC(=O)c2cc(Oc3ccc(-c4nnc(C)o4)cc3)cc(OC(C)COC)c2)n1` (centres unmarked) [Example 2.19, Ethyl 2-{3-[(1-methoxypropan-2-yl)oxy]-5-[4-(5-methyl-1,3,4-oxadiazol-2-yl)phenoxy]benzamido}thiazole-4-carboxylate] the same measures were 106%, 188%, 318% and 344%.
For `COC[C@H](C)Oc1cc(Oc2ccc(-c3nnc(C)o3)cc2)cc(C(=O)Nc2nc(C)cs2)c1` [Example 2.20, (S)-3-((1-Methoxypropan-2-yl)oxy)-5-(4-(5-methyl-1,3,4-oxadiazol-2-yl)phenoxy)-N-(4-methylthiazol-2-yl)benzamide] the same measures were 251%, 405%, 436% and 408%.
For `COCC(C)Oc1cc(Oc2ccc(-c3nnc(C)o3)cc2)cc(C(=O)Nc2ncc(Br)s2)c1` (centres unmarked) [Example 2.36, N-(5-Bromothiazol-2-yl)-3-((1-methoxypropan-2-yl)oxy)-5-(4-(5-methyl-1,3,4-oxadiazol-2-yl)phenoxy)benzamide] the same measures were 210%, 271%, 316% and 302%.
Consider `CCOC(=O)Cc1csc(NC(=O)c2cc(Oc3ccc(-c4nnc(C)o4)cc3)cc(OC(C)COC)c2)n1` (centres unmarked) [Example 2.7, Ethyl 2-(2-(3-((1-methoxypropan-2-yl)oxy)-5-(4-(5-methyl-1,3,4-oxadiazol-2-yl)phenoxy)benzamido)thiazol-4-yl)acetate], for which the activity at 0.1 µM (compound 0.1 uM) is 288%. Also, the activity at 1 µM (compound 1 uM) amounted to 349%. In addition, under “compound 5 uM”, the activity at 5 µM was found to be 353%. Further, where the note is “compound 10 uM”, the activity at 10 µM is 345%.
For `COC[C@@H](C)Oc1cc(Oc2ccc(-c3nnc(C)o3)cc2)cc(C(=O)Nc2nccs2)c1` [Example 2.15, (R)-3-(1-Methoxypropan-2-yloxy)-5-(4-(5-methyl-1,3,4-oxadiazol-2-yl)phenoxy)-N-(thiazol-2-yl)benzamide] the same measures were 105%, 164%, 239% and 266%.

For the origin of these results see US8450494B2, “Disubstituted benzamide derivatives as glucokinase (GK) activators” (Cadila Healthcare Limited, priority 2010, dated 2013).
